Experimental findings from EP1124440B1, “USE OF […] FOR FOODSTUFF AND COSMETIC MATERIAL” (Aquacal Limited, priority 1998, dated 2000) are described below.

Like-named read-outs stand apart in the source and are kept apart here.

The conditions of data set [1]: water activity; biscuits cooked for exactly eleven minutes. The source says: (§1) The biscuits were cooked for exactly eleven minutes and then analysed.
(§2) The following parameters were examined: friability, water activity (Aw) and colour.

For data set [2] the following is noted: biscuits cooked for exactly eleven minutes.
From the text: Four batches of biscuits were made using the following recipe:
as §1, §2

For data set [3] the following is noted: biscuits. As for the experimental part:
Colour was measured using LAB values. L. Brightness A. Red B. Yellow
The LAB values of the biscuits were measured using a Minolta colour meter.

For data set [4] the following is noted: ice-cream; B = Yellow Colour. As for the experimental part:
3. Colour was measured using a Minolta colour meter and the results were expressed using LAB values: L = Lightness A = Red Colour B = Yellow Colour
4. A further batch of ice-cream was made to assess if calcium addition effected the over-run properties of the ice-cream.

Regarding `O=C([O-])[O-].[Ca+2]` [Calcium Carbonate], in data set [1], the Aw entry is on record as “significantly increased”. In addition, in data set [2], the Friability entry is reported as “significantly reduced”. Moreover, the A value result in data set [3] (A = Red) is recorded as “significantly reduced”. The B value entry is recorded as “did not effect this value” in data set [3] (B = Yellow) and “significant difference” in data set [4]. For the same compound, in data set [3] (L = Brightness), the L value was 72.87.
